ChEMBL document CHEMBL1821570, “Inhibition of the helicase activity of the HCV NS3 protein by symmetrical dimeric bis-benzimidazoles” (Bioorg Med Chem Lett, 2011)
Active and inactive are the calls of the source. No cut-off for these calls is given here.

Legend:
Hepacivirus hominis [1] = assay: Inhibition of recombinant hepatitis C virus NS3 helicase domain NTPase activity at 400 uM by TLC in presence of poly(U)
[2] = Inhibition of recombinant hepatitis C virus NS3 helicase domain NTPase activity by TLC in presence of poly(U); design: species or system Hepacivirus hominis
Hepacivirus hominis [3] = assay: Inhibition of recombinant hepatitis C virus NS3 helicase domain NTPase activity by TLC
Hepacivirus hominis [4] = assay: Enhancement of binding efficacy between compound-treated recombinant hepatitis C virus NS3 helicase and 32P-labelled SM1 DNA duplex after 10 mins
Hepacivirus hominis [5] = assay: Inhibition of recombinant hepatitis C virus NS3 helicase domain assessed as the enzyme concentration at which a half of compound molecules are bound by PTI spectrofluorimetry
Hepacivirus hominis [6] = assay: Inhibition of recombinant hepatitis C virus NS3 helicase domain by PTI spectrofluorimetry
[7] = Inhibition of recombinant hepatitis C virus NS3 helicase domain using RNA duplex rSM2 labelled with [gamma-32P]ATP as substrate after 30 mins; design: species or system Hepacivirus hominis
[8] = Inhibition of recombinant hepatitis C virus NS3 helicase domain using DNA duplex SM2 labelled with [gamma-32P]ATP as substrate after 30 mins; design: species or system Hepacivirus hominis
[9] = Inhibition of recombinant hepatitis C virus NS3 helicase domain using DNA duplex S(DB11) labelled with [gamma-32P]ATP as substrate after 30 mins; design: species or system Hepacivirus hominis
[10] = Inhibition of recombinant hepatitis C virus NS3 helicase domain using DNA duplex S(DB2)b labelled with [gamma-32P]ATP as substrate after 30 mins; design: species or system Hepacivirus hominis
[11] = Inhibition of recombinant hepatitis C virus NS3 helicase domain using DNA duplex S(DB2)a labelled with [gamma-32P]ATP as substrate after 30 mins; design: species or system Hepacivirus hominis
[12] = Inhibition of recombinant hepatitis C virus NS3 helicase domain using DNA duplex SM1 labelled with [gamma-32P]ATP as substrate after 30 mins; design: species or system Hepacivirus hominis
[13] = Inhibition of recombinant hepatitis C virus NS3 helicase domain using DNA duplex S1 labelled with [gamma-32P]ATP as substrate after 30 mins; design: species or system Hepacivirus hominis
Hepacivirus hominis [14] = assay: Inhibition of recombinant hepatitis C virus NS3 helicase domain using DNA duplex S(DB11) labelled with [gamma-32P]ATP as substrate up to 400 after 30 mins
Hepacivirus hominis [15] = assay: Inhibition of recombinant hepatitis C virus NS3 helicase domain using DNA duplex S(DB2)b labelled with [gamma-32P]ATP as substrate up to 400 after 30 mins
Hepacivirus hominis [16] = assay: Inhibition of recombinant hepatitis C virus NS3 helicase domain using DNA duplex S(DB2)a labelled with [gamma-32P]ATP as substrate up to 400 after 30 mins
Hepacivirus hominis [17] = assay: Inhibition of recombinant hepatitis C virus NS3 helicase domain using DNA duplex SM1 labelled with [gamma-32P]ATP as substrate up to 400 after 30 mins
Hepacivirus hominis [18] = assay: Inhibition of recombinant hepatitis C virus NS3 helicase domain using DNA duplex S1 labelled with [gamma-32P]ATP as substrate up to 400 after 30 mins

For `CN1CCN(c2ccc3nc(-c4ccc5nc(CNC(=O)CCCCCCCCCCCC(=O)NCc6nc7ccc(-c8nc9ccc(N%10CCN(C)CC%10)cc9[nH]8)cc7[nH]6)[nH]c5c4)[nH]c3c2)CC1`, the inhibition (Hepacivirus hominis [1]) was “inactive”, the IC50 [2] was 20 µM and the inhibition (Hepacivirus hominis [3]) was “inactive”. The Activity (Hepacivirus hominis [4]) was “Active”, the Activity (Hepacivirus hominis [5]) was 7.3 µM and the inhibition (Hepacivirus hominis [6]) was “Active”. It also gave an IC50 [7] of 1.4 µM, an IC50 [8] of 9 µM and an IC50 [9] of 8 µM. It also gave an IC50 [10] of 12 µM, an IC50 [11] of 7 µM and an IC50 [12] of 7 µM. It also gave an IC50 [13] of 10 µM.
In the case of `CN1CCN(c2ccc3nc(-c4ccc5nc(CNC(=O)CCCC(=O)NCc6nc7ccc(-c8nc9ccc(N%10CCN(C)CC%10)cc9[nH]8)cc7[nH]6)[nH]c5c4)[nH]c3c2)CC1`, the inhibition (Hepacivirus hominis [3]) is reported as “inactive”, the IC50 [9] is reported as 230 µM and the IC50 [10] is reported as 250 µM. The IC50 [11] was 220 µM, the IC50 [12] was 235 µM and the IC50 [13] was > 100 µM.
For `CN1CCN(c2ccc3nc(-c4ccc5nc(CNC(=O)CCCCCCCC(=O)NCc6nc7ccc(-c8nc9ccc(N%10CCN(C)CC%10)cc9[nH]8)cc7[nH]6)[nH]c5c4)[nH]c3c2)CC1`, the inhibition (Hepacivirus hominis [3]) was “inactive”, the IC50 [9] was 140 µM and the IC50 [10] was 140 µM. For the same molecule, the IC50 [11] was 150 µM, the IC50 [12] was 210 µM and the IC50 [13] was > 100 µM.
For `CN1CCN(c2ccc3nc(-c4ccc5nc(CNC(=O)CCC(=O)NCc6nc7ccc(-c8nc9ccc(N%10CCN(C)CC%10)cc9[nH]8)cc7[nH]6)[nH]c5c4)[nH]c3c2)CC1`, the inhibition (Hepacivirus hominis [1]) was “inactive”, the IC50 [2] was 280 µM and the inhibition (Hepacivirus hominis [3]) was “inactive”. For the same molecule, the Activity (Hepacivirus hominis [4]) was “inactive”, the Activity (Hepacivirus hominis [5]) was 51 µM and the inhibition (Hepacivirus hominis [6]) was “inactive”. For the same molecule, the IC50 [7] was 38 µM, the IC50 [8] was 240 µM and the IC50 [9] was 240 µM. For the same molecule, the IC50 [10] was 260 µM, the IC50 [11] was 250 µM and the IC50 [12] was 230 µM. The IC50 [13] was > 100 µM.
In the case of `CN1CCN(c2ccc3nc(-c4ccc5nc(CNC(=O)CCCCCC(=O)NCc6nc7ccc(-c8nc9ccc(N%10CCN(C)CC%10)cc9[nH]8)cc7[nH]6)[nH]c5c4)[nH]c3c2)CC1`, the inhibition (Hepacivirus hominis [3]) is reported as “inactive”, the IC50 [9] is reported as 160 µM and the IC50 [10] is reported as 200 µM. For the same molecule, the IC50 [11] was 150 µM, the IC50 [12] was 225 µM and the IC50 [13] was > 100 µM.
In the case of `CN1CCN(c2ccc3nc(-c4ccc5nc(CNC(=O)CCCCC(=O)NCc6nc7ccc(-c8nc9ccc(N%10CCN(C)CC%10)cc9[nH]8)cc7[nH]6)[nH]c5c4)[nH]c3c2)CC1`, the inhibition (Hepacivirus hominis [3]) is reported as “inactive”, the IC50 [9] is reported as 170 µM and the IC50 [10] is reported as 240 µM. For the same molecule, the IC50 [11] was 150 µM and the IC50 [12] was 230 µM.
For `CN1CCN(c2ccc3[nH]c(-c4ccc5[nH]c(-c6ccc(O)cc6)nc5c4)nc3c2)CC1`, the inhibition (Hepacivirus hominis [3]) was “inactive”, the inhibition (Hepacivirus hominis [14]) was “inactive” and the inhibition (Hepacivirus hominis [15]) was “inactive”. The inhibition (Hepacivirus hominis [16]) was “inactive”, the inhibition (Hepacivirus hominis [17]) was “inactive” and the inhibition (Hepacivirus hominis [18]) was “inactive”.
For `CN(CCCOc1ccc(-c2nc3ccc(-c4nc5ccc(N6CCN(C)CC6)cc5[nH]4)cc3[nH]2)cc1)CCCOc1ccc(-c2nc3ccc(-c4nc5ccc(N6CCN(C)CC6)cc5[nH]4)cc3[nH]2)cc1`, the inhibition (Hepacivirus hominis [3]) was “inactive”, the IC50 [9] was 15 µM and the IC50 [10] was 10 µM. It also gave an IC50 [11] of 12 µM, an IC50 [12] of 18 µM and an IC50 [13] of 5 µM.
In the case of `CC(=O)NCc1nc2ccc(-c3nc4ccc(N5CCN(C)CC5)cc4[nH]3)cc2[nH]1`, the inhibition (Hepacivirus hominis [3]) is reported as “inactive”, the inhibition (Hepacivirus hominis [14]) is reported as “inactive” and the inhibition (Hepacivirus hominis [15]) is reported as “inactive”. The inhibition (Hepacivirus hominis [16]) was “inactive”, the inhibition (Hepacivirus hominis [17]) was “inactive” and the inhibition (Hepacivirus hominis [18]) was “inactive”.
